From ChEMBL document CHEMBL5131418, “Streptooctatins A and B, fusicoccane-type diterpenoids with autophagic activity from Streptomyces sp. KCB17JA11” (Bioorg Med Chem Lett, 2022) come the findings set out here.

Activity calls are given as the source filed them. The calls are words filed in the database; no cut-off is given here.

Data set [1] relates to HeLa. In words: Induction of autophagy in human HeLa cells assessed as increase in LC3-II protein expression level at 10 to 50 uM uM incubated for 24 hrs by western blot analysis. It is filed as functional, cell-based. As to conditions: dose 10-50 µM.
For data set [2], the system named is HeLa. Nature of the data set: Cytotoxicity against human HeLa cells assessed as reduction in cell viability up to 100 uM. It is filed as toxicity, cell-based.
The test system of data set [3] is HeLa. Nature of the data set: Induction of autophagy in human HeLa cells stably expressing EGFP-LC3 assessed as increase in EGFP-LC3 puncta formation at 25 uM incubated for 24 hrs by fluorescence microscopic analysis. It is filed as functional, cell-based.
Data set [4] relates to HeLa. Nature of the data set: Cytotoxicity against human HeLa cells assessed as reduction in cell number at 100 uM. It is filed as toxicity, cell-based.

Regarding `CCC(=O)[C@@H](C)[C@H]1O[C@@](O)([C@H](C)C(=O)OC[C@@H](CO)[C@H]2CC[C@]3(C)C[C@@H]4[C@H](CO)C[C@@H](O)[C@H]4[C@@](C)(O)C/C=C/23)[C@H](C)C[C@H]1C`, the outcome in the data set on HeLa [1] and in the data set with HeLa [3] was Active. Further, the Activity result is “Non-Toxic” with HeLa [2] and “Toxic” in the data set with HeLa [4].
For `CC(C)[C@H]1CC[C@]2(C)C[C@@H]3[C@H](CO)C[C@@H](O)[C@H]3[C@@](C)(O)C/C=C/12`, in the data set on HeLa [2], the Activity entry was “Non-Toxic”.
Regarding `CCCC(=O)[C@@H](C)[C@H]1O[C@@](O)([C@H](C)C(=O)OC[C@@H](CO)[C@H]2CC[C@]3(C)C[C@@H]4[C@H](CO)C[C@@H](O)[C@H]4[C@@](C)(O)C/C=C/23)[C@H](C)C[C@H]1C`, the result with HeLa [1] and in the data set with HeLa [3] was Active. Also, the Activity result in the data set with HeLa [2] was “Non-Toxic”; in the data set on HeLa [4], “Toxic”.
